According to PubChem BioAssay (NCI):
Where “and” joins values, the source holds several entries; their conditions need not be identical. Equal entries are not always repeated.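 Each compound was tested at five concentrations against cells in 96-well plates for 48 hours. At the GI50, growth is halved. TGI denotes the concentration required for complete inhibition of growth.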

What was measured:
Test in all cases: growth of human tumour cells (NCI), 48 h
HCC-2998 colon = test system: HCC-2998 colon
NCI-H23 lung = test system: NCI-H23 lung
SNB-19 CNS = test system: SNB-19 CNS
OVCAR-8 ovarian = test system: OVCAR-8 ovarian
OVCAR-5 ovarian = test system: OVCAR-5 ovarian
NCI-H522 lung = test system: NCI-H522 lung
HL-60(TB) leukemia = test system: HL-60(TB) leukemia
RPMI-8226 leukemia = test system: RPMI-8226 leukemia
SF-268 CNS = test system: SF-268 CNS
OVCAR-3 ovarian = test system: OVCAR-3 ovarian

Row | Compound | TGI (HCC-2998 colon) [µM] | TGI (NCI-H23 lung) [µM] | TGI (SNB-19 CNS) [µM] | TGI (OVCAR-8 ovarian) | TGI (OVCAR-5 ovarian) [µM] | TGI (NCI-H522 lung) | TGI (HL-60(TB) leukemia) | TGI (RPMI-8226 leukemia) [µM] | TGI (SF-268 CNS) | TGI (OVCAR-3 ovarian) | GI50 (HCC-2998 colon) [µM] | GI50 (SNB-19 CNS) [µM] | GI50 (OVCAR-8 ovarian) [µM] | GI50 (OVCAR-5 ovarian) [µM] | GI50 (NCI-H522 lung) [µM] | GI50 (HL-60(TB) leukemia) [µM] | GI50 (RPMI-8226 leukemia) [µM] | GI50 (SF-268 CNS) [µM] | GI50 (OVCAR-3 ovarian) [µM] | GI50 (NCI-H23 lung) [µM]
1 | CC(C)c1cccc(C(C)C)c1NC(=O)/C(CC(=O)CC(c1ccccc1)c1c(O)c2ccccc2oc1=O)=N/O (centres undefined) | > 100 | > 100 | > 100 | > 100 µM | > 100 | > 100 µM | > 100 µM | > 100 | > 100 µM | > 100 µM |  |  |  |  |  |  |  |  |  | 
2 | COc1cc(-c2cn(-c3ccc(Cl)c(Cl)c3)c(=O)n2C(C)=O)cc(OC)c1OC | 29.8 |  | 33.2 | 31.9 µM | 27.3 | 30 µM | 33.9 µM | 32.3 | 30 µM | 38.1 µM | 14.9 | 11.3 | 8.49 | 13 | 13.3 | 14.2 | 10.5 | 6.92 | 14.9 | 
3 | Nc1ccccc1C#C/C=C\C#Cc1ccccc1[N+](=O)[O-] | 43.6 | 38.5 | 96.2 | 32.9 µM | 33.6 | 39.8 µM | 60.7 µM | > 100 | 27.7 µM | 37 µM | 12 | 19.8 | 4.83 | 17.4 | 7.25 | 1.96 | 4.58 | 6.38 | 4.03 | 12.4
4 | Cc1sc2nc3c4ccccc4c(NCCCN(C)C)nn3c(=O)c2c1C | 20.7 | 23 | 29.5 | 27.9 µM | 28.5 | 28.8 µM | 25.8 µM | 11.7 | 24.1 µM | 24.3 µM | 7.88 | 15.9 | 11 | 14.2 | 12.4 | 9.98 | 4.8 | 9.66 | 11.3 | 8.45
5 | CC(CCC(=O)O)C(=O)O (centres undefined) | > 100 | > 100 | > 100 | > 100 µM | > 100 | > 100 µM | > 100 µM | > 100 | > 100 µM | > 100 µM |  |  |  |  |  |  |  |  |  | 
6 | CC1=C(C(=O)Nc2cccc(Cl)c2)C(c2ccccc2F)C(C(=O)Nc2cccc(Cl)c2)=C(C)N1 | 21 | 26.5 | > 100 | 46.9 µM | 37.2 | 23.1 µM | 18.7 µM | 11.1 | 36.8 µM | 25.2 µM |  |  |  |  |  |  |  |  |  | 
7 | Cc1ccc2nc(-c3ccc(N(C)C)c(Br)c3)cn2c1 | > 100 | > 100 | > 100 | > 100 µM | > 100 | > 100 µM | > 100 µM | > 100 | > 100 µM | > 100 µM | > 100 | 64.4 | 17.4 | > 100 | > 100 | 1.61 | 3.93 | 8.09 | > 100 | > 100
8 | COc1ccc(C2=NN(C=O)C(c3cccc(Nc4ccnc5cc(Cl)ccc45)c3)C2)cc1 (centres undefined) | 94.3 | > 100 | > 100 | 27.6 µM | > 100 | 12.7 µM | 4.91 µM | 11.2 | 88.7 µM | 12.5 µM | 11.7 | 5.11 | 3.29 | 11.3 | 1.33 | 2.03 | 1.36 | 4.8 | 1.97 | 1.87
9 | CCOc1cc(/C=N\Nc2nnc(C)n2N)c(C)cc1N(CCCl)CCCl | 16 | 9.49 | > 45.7 | > 36 µM | > 100 | 5.8 µM | 3.82 µM | 3.01 | > 92.6 µM | 38.6 µM | 1.45 | 1.28 | 1.34 | 3.05 | 0.461 | 0.351 | 0.0978 | 1.97 | 0.737 | 0.8
10 | C[C@]12CCCC(=O)C1(O)C[C@H](C(=O)O)CC2 (some centres undefined) | > 100 | > 100 | > 100 | > 100 µM | > 100 | > 100 µM | > 100 µM | > 100 | > 100 µM | > 100 µM |  |  |  |  |  |  |  |  |  | 
11 | C=C1C(=O)O[C@H]2[C@H]1CC/C(COC(=O)c1cc3cc(Cl)ccc3[nH]1)=C\CC[C@@]1(C)O[C@@H]21 | 2.85 | 3.68 | 10.1 | 3.32 µM | 3.28 | 3.92 µM | 2.3 µM | 3.28 | 2.86 µM | 2.7 µM | 1.4 | 2.91 | 1.34 | 1.53 | 1.59 | 0.44 | 0.81 | 1.44 | 1.25 | 1.63
12 | CC[C@]1(O)C(=O)OCc2c1cc1n(c2=O)Cc2cc3c(N)cccc3nc2-1 | > 100 | > 100 | > 100 | > 100 µM | > 100 | > 100 µM | > 100 µM | > 100 | > 100 µM | > 100 µM |  |  |  |  |  |  |  |  |  | 
13 | N#CCCN(CCC#N)c1ccc(C(Sc2ccccc2)C(NC(=O)c2cc([N+](=O)[O-])ccc2Cl)C(=O)Sc2ccccc2)cc1 (centres undefined) | 19.7 | 13.5 | 18.6 | 4.95 µM and 3.69 µM | 11.7 | 5.5 µM and 1.6 µM | 3.62 µM and 2.29 µM | 5.66 | 8.86 µM and 5.95 µM | 8.36 µM and 7.63 µM |  | 3.98 | 1.63 |  |  | 0.416 |  | 1.27 | 2.14 | 2.84
14 | CCn1c(-c2nonc2N)nc2c(C#CC(C)(C)O)nc(OCCNC)cc21 | > 25 | > 25 | > 25 | > 25 µM | 24.9 | 9.72 µM | 18.2 µM | > 25 | > 25 µM | 17.7 µM | 5.34 | 8.4 | 7.81 | 7.99 | 4.98 | 7.78 | 9.49 | 7.94 | 6.16 | 8.81
